Experimental data from US10413556B1, “Production of insulin by testosterone olfaction” (priority 2019, dated 2019).
“And” between values parts separate entries of the source, which are not always exact repeats. Equal values may be shown once.

Assays:
[1] = test system: progesterone production; assay: Progesterone olfaction in postmenopausal women; assay type: in vivo; conditions: 10 postmenopausal women; unpublished studies
Description: (§1) These studies raised the question: is this action by olfaction unique to testosterone or can the effect be observed with other hormones? To answer this question, Applicant studied progesterone olfaction in 10 postmenopausal women. Progesterone is the primary female sex hormone and testosterone is the primary male sex hormone. […] This is a ground-breaking discovery: smelling the hormones that have been tested caused the body to produce the hormone that is smelled. However, it is still unknown whether hormone olfaction will work with hormones other than sex hormones.

[2] = test system: insulin resistance; conditions: type 2 diabetic men with low testosterone, weekly injections for 24 weeks; cited from earlier work
[3] = test system: free testosterone production; assay: Testosterone production after olfaction of testosterone or truffle extract; assay type: in vivo; conditions: olfaction of pure testosterone; unpublished research
Description: Olfaction, the sense of smell, is critical for the survival of almost all creatures. Humans are able to distinguish over 10,000 different odor molecules. With every inhalation, currents of air swirl through the nostrils over the bony turbinates in the nose that contain receptors in the olfactory epithelium. Olfactory mucosa protects the olfactory epithelium and allows odors to dissolve for detection by olfactory receptors. The cilia projecting from the olfactory knob contain receptors for odorants. The cilia project from the knob directly into the […]. The interaction of the right molecule with the right receptor causes a structural transformation of the receptor, which gives rise to an electrical signal to the olfactory bulb and thence to the areas in the limbic brain that perceive it as the original smell.
as §1

[4] = test system: blood sugar level; assay: Blood sugar level in men before and after testosterone olfaction; assay type: in vivo
Description: To evaluate the possible role of testosterone in blood sugar reduction in diabetes type 2, the following protocol was designed.
Ten men between the ages of 30 to 90 volunteered to participate in this study as subjects. Approximately one and a half hours after having a meal the subject came to Applicant's office. Prior to the testosterone olfaction the blood sugar level was measured.
The subject produced an adequately sized drop of blood from a finger using a lancing device. The blood sugar was measured with a Contour Blood Glucose Monitoring System, Model 9546 C, Serial Number FB00450. The drop of blood was picked up by a Contour blood glucose test strip 7097C specific for the instrument and within the usable date range. This value was recorded as mg/dL.
A drop of pure testosterone diluted 1:1000 in ethanol was sprayed onto the palm of the hand and smelled by the subject. […] This concentration more efficient than the undiluted hormone.
A second blood drop was immediately taken and measured and recorded in the same manner as described above.

| Compound | progesterone production after olfaction [1] | ability to utilize insulin [2] | testosterone production after olfaction [3] | percent reduction of sugar level, average for all ten ([4]; average of ten subjects, after testosterone olfaction) [%] | PERCENT CHANGE of blood sugar ([4]; individual subject, before vs after olfaction of testosterone 1:1000 in ethanol) | blood sugar AFTER OLFACTION ([4]; individual subject, measured immediately after smelling testosterone diluted 1:1000 in ethanol, about 1.5 h after a meal, finger blood) | effect of other concentrations compared with 1:1000 dilution ([4]; prior studies, other concentrations of testosterone) | effect on blood sugar level ([4]; testosterone olfaction used alone, ten men) | time in which olfaction lowers blood sugar ([4]; time to lance the finger, collect the blood and test) |
| --- | --- | --- | --- | --- | --- | --- | --- | --- | --- |
| CC(=O)[C@H]1CC[C@H]2[C@@H]3CCC4=CC(=O)CC[C@]4(C)[C@H]3CC[C@]12C [progesterone] | does initiate production of progesterone | – | – | – | – | – | – | – | – |
| C[C@]12CC[C@H]3[C@@H](CCC4=CC(=O)CC[C@@]43C)[C@@H]1CC[C@@H]2O [testosterone] | – | improved | does initiate testosterone production | 36 | 56% and 30% (2×) and 38% and 19% and 17% and 34% and 70% and 53% and 12% | 86 mg/dL (2×) and 99 mg/dL (2×) and 109 mg/dL and 107 mg/dL and 130 mg/dL and 158 mg/dL and 98 mg/dL and 92 mg/dL | essentially the same effect | lowers the blood sugar level | about 30 seconds |
